Target: T1, α-(2→6)-sialyltransferase from Photobacterium damselae (Pd26ST) (Photobacterium damselae, UniProt O66375)
T1 construct: gene bst; recombinant, expressed and purified as in supplementary information
T1 sequence (O66375 16-675): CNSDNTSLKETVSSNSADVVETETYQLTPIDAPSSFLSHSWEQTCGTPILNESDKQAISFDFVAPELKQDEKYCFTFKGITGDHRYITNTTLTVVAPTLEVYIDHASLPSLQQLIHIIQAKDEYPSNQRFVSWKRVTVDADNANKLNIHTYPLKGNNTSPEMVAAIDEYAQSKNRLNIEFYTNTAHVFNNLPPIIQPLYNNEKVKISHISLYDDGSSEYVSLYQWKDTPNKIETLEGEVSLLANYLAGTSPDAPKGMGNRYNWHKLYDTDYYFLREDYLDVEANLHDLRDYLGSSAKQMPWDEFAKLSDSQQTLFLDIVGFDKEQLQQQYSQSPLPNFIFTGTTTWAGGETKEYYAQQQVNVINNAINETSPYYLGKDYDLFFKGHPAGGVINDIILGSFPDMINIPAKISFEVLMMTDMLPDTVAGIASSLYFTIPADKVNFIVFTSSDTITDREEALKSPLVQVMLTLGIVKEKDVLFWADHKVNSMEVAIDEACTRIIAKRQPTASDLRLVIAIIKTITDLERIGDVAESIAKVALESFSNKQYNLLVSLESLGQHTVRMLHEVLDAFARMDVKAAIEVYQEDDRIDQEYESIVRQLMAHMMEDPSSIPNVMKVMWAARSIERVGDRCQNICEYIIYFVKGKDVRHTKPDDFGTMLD
Assay: sialylation of phage-displayed LacNAc / Lac, MALDI-TOF MS
Type: biochemical
Settings: donor substrate; acceptor LacNAc- and lactose-phage; 9 h

## CC(=O)N[C@H]1[C@H]([C@H](O)[C@H](O)CO)O[C@](OP(=O)(O)OC[C@H]2O[C@@H](n3ccc(N)nc3=O)[C@H](O)[C@@H]2O)(C(=O)O)C[C@@H]1O [CMP-Neu5Ac]
  sialylation of phage-displayed LacNAc / Lac, MALDI-TOF MS: (Pd26ST) and cytidine-5’-monophosphate-N-acetylneuraminic acid (CMP-Neu5Ac)

Source: publication PMC10462762, “Chemoenzymatic synthesis of genetically-encoded multivalent liquid N-glycan arrays” (Nature Communications, 2023)
